# Read-outs that look alike come from different tables or passages of the source.
# Biological target: T1, HlyA1-IFABP fusion protein (encoded by pIAR_207, SEQ ID NO: 20; IFABP wt accession NP_037200) (Rattus norvegicus, UniProt P02693)
# T1 construct: pIAR_207
# Test: Fluorescence spectroscopy titration with DAUDA, refolded HlyA1-IFABP
# Assay type: binding
# Conditions: 100 nM protein, 20 mM KH2PO4, 0.25 mM EDTA, pH 7.3, excitation 350 nm, emission 500 nm
# Procedure: SEC analyses of refolded HlyA1-IFABP. A and C: SDS-PAGE gel of elution fractions from SEC analysis of HlyA1-IFABP refolded with Ca^2+ and elution chromatogram of the SEC. B and D: SDS-PAGE gel of elution fractions from SEC analysis of HlyA1-IFABP refolded with EDTA and elution chromatogram of the SEC. E: Purified HlyA1-IFABP in the presence of either Ca^2+ or EDTA were incubated with Factor Xa and protein samples were analyzed by SDS-PAGE at indicated time points. The arrow indicates the position of IFABP. F and G: Functional studies of HlyA1-IFABP using titration experiments with DAUDA. F: HlyA1-IFABP was refolded in the presence of Ca^2+ and purified by SEC. DAUDA was titrated to HlyA1-IFABP, the fluorescence signal at 500 nm was recorded and plotted against the DAUDA concentration. […]
# 11-(Dansylamino)undecanoic acid (DAUDA, Cayman Chemical) was prepared as a 1 mM stock solution in 50% isopropanol and 50% buffer (20 mM KH2PO4, 0.25 mM EDTA, pH 7.3) and further diluted to the appropriate concentrations with buffer. […] The fluorescence signal was recorded at a wavelength of 500 nm after excitation at 350 nm using a Fluorolog®-3 (Horiba) (Kim and Frieden (1998) Protein Sci, 7, 1821-1828). […] Fluorescence signals of DAUDA in buffer in the absence of protein was subtracted as background. The corrected and normalized fluorescence signals were plotted against the DAUDA concentration. […]
# T1 sequence (P02693 1-132 with tags or gaps): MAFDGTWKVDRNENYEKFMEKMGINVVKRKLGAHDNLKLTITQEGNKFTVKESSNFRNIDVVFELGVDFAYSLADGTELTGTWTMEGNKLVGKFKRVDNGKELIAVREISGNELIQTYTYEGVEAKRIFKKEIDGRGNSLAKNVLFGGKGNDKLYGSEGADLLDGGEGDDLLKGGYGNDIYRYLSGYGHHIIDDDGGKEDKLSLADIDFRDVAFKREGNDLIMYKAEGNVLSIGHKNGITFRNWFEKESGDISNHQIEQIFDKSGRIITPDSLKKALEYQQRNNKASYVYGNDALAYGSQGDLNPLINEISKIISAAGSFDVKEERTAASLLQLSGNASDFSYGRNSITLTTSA
smiles,measurement,setting,value
"CN(C)c1cccc2c(S(=O)(=O)NCCCCCCCCCCC(=O)O)cccc12 [DAUDA, 11-(((5-(dimethylamino)-1-naphthalenyl)sulfonyl)amino)-undecanoic acid]",Kd,"refolded in the presence of Ca^2+, purified by SEC, read-out: KD for HlyA1-IFABP refolded in Ca^2+",141 nM
same,Kd,"refolded/purified in the presence of EDTA, read-out: KD for HlyA1-IFABP refolded in EDTA",264 nM

# — patent publication US10443081B2, “Methods for the expression of peptides and proteins” (Numaferm GmbH, priority 2013, dated 2019)
